Source: patent US12419824B2, “Compounds useful for the treatment and/or care of the skin, hair, nails and/or mucous membranes” (Lubrizol Advanced Materials, Inc., priority 2019, dated 2025)

Key:
[1] = tested on: Muscle bind like protein 1 (MBNL1); assay: MBNL1 quantification in human skeletal muscle cells by TR-FRET (Examples 7, 19); type: cell-based; conditions: hSkMc, 0.5 mg/mL, as Example 7, versus basal control
Method: MBNL1 induction by the peptides of the invention is evaluated by a Time resolved fluorescence resonance energy transfer (TR-FRET) assay. The aim of this study is to investigate the capacity of peptide candidates to increase MBNL1 in human skeletal muscle cells (hSkMc).
(§1) hSkMc (Innoprot) are seeded in 12-well plates at a density of 1.5×10^4 cells/well in Skeletal Muscle Cell Growth Medium (Promocell). After 72 hours incubation, medium is removed and replaced with Skeletal Muscle Cell Differentiation Medium (Promocell). 48 hours after beginning cell differentiation, fresh differentiation medium with 0.5 mg/ml of test items is added. Treatment is continued for 48 hours and non-treated cells are used as basal control. After 48 hours of treatment, cell medium is removed and added cell lysis buffer to wells. Immediately, plates are kept at −80° C. in order to improve protein extraction during the defrosting process. After 72 hours, cells are lysated by shaking the plates in an orbital rotor at room temperature for 45 minutes. Next, cell lysates are collected and assayed to quantify the level of MBNL1 protein and total protein concentration.
(§2) MBNL1 protein levels measurement is performed with Human MBNL1 Assay Kit (Cisbio) according to the manufacturer's protocol. Briefly, the kit is used to perform a TR-FRET for MBNL1 quantification. The protein is detected with the antibodies provided in the kit and quantified by a fluorescence measurement. The quantification is carried out by using a microplate reader (ClarioStar, BMG) set to 665 nm and 620 nm.
(§3) Total protein concentration of cell lysate is determined by using Pierce BCA Protein Assay Kit™ (Thermo Scientific) according to manufacturer's protocol. In brief, after adding Working Reagent to the samples and the standards, the samples are incubated. Afterwards, color change is measured with an absorbance microplate reader (Clariostar™, BMG) at 562 nm. The total protein amount is used to normalize the level of MBNL1 protein concentration obtained by the TR-FRET test in the samples.
Different peptides of the invention are tested as disclosed in Example 7 at 0.5 mg/mL.

[2] = tested on: Muscle bind like protein 1 (MBNL1); assay: MBNL1 quantification by TR-FRET in hSkMc from TEBU-BIO (Example 20); type: cell-based, human; conditions: 0.5 mg/ml, versus basal control
Method: as §1, §2, §3
The assay is performed as disclosed in Example 7 except that hSkMc from TEBU-BIO (Barcelona, Spain) are used. Different peptides of the invention are tested at a concentration of 0.5 mg/ml.

Row | Substance | % MBNL1 [1] [%] | % MBNL1 [2] [%]
1 | Ac-Ala-Asp-Val-Tyr-Lys-NH2 (Ac-ADVYK-NH2) [PEP14] | 145.0 | 
2 | Ac-Ala-Leu-Lys-Pro-Asn-Thr-OH (Ac-ALKPNT-OH) [PEP27] |  | 126.1
3 | Ac-Asn-Val-Tyr-Lys-NH2 (Ac-NVYK-NH2) [PEP11] | 145.2 | 
4 | Ac-Asp-Ile-Tyr-Lys-NH2 (Ac-DIYK-NH2) [PEP8] | 190.4 | 
5 | Ac-Asp-Leu-Tyr-Lys-NH2 (Ac-DLYK-NH2) [PEP12] | 154.4 | 
6 | Ac-Asp-Val-Phe-Lys-NH2 (Ac-DVFK-NH2) [PEP9] | 134.2 | 
7 | Ac-Asp-Val-Tyr-Arg-NH2 (Ac-DVYR-NH2) [PEP10] | 158.3 | 
8 | Ac-Asp-Val-Tyr-Lys-Ala-NH2 (Ac-DVYKA-NH2) [PEP15] | 145.2 | 
9 | Ac-Asp-Val-Tyr-Lys-OH (Ac-DVYK-OH) [PEP4] | 378.5 | 
10 | Ac-Glu-Ile-Phe-Arg-NH2 (Ac-EIFR-NH2) [PEP24] | 117.5 | 
11 | Ac-Glu-Ile-Tyr-Arg-NH2 (Ac-EIYR-NH2) [PEP23] | 181.4 | 
12 | Ac-Glu-Ile-Tyr-Lys-NH2 (Ac-EIYK-NH2) [PEP20] | 214.2 | 
13 | Ac-Glu-Val-Tyr-Lys-NH2 (Ac-EVYK-NH2) [PEP7] | 141.5 | 
14 | H-Ala-Ile-Arg-Pro-Asn-Thr-NH2 (H-AIRPNT-NH2) [PEP44] |  | 240.6
15 | H-Ala-Leu-Arg-Pro-Asn-Thr-NH2 (H-ALRPNT-NH2) [PEP30] |  | 181.3
16 | H-Ala-Leu-Lys-Pro-Asn-NH2 (H-ALKPN-NH2) [PEP41] |  | 138.4
17 | H-Ala-Leu-Lys-Pro-Gln-Thr-NH2 (H-ALKPQT-NH2) [PEP50] |  | 119.4
18 | H-Ala-Leu-Lys-Val-Asn-Thr-NH2 (H-ALKVNT-NH2) [PEP31] |  | 120.0
19 | H-Asp-Val-Tyr-Lys-NH2 (H-DVYK-NH2) [PEP5] | 261.4 | 
20 | H-Gly-Ile-Lys-Pro-Asn-Thr-NH2 (H-GIKPNT-NH2) [PEP42] |  | 114.2
21 | H-Gly-Val-Arg-Pro-Asn-Thr-NH2 (H-GVRPNT-NH2) [PEP46] |  | 182.1
22 | H-Leu-Lys-Pro-Asn-Thr-NH2 (H-LKPNT-NH2) [PEP40] |  | 117.3
23 | Palm-Asp-Val-Tyr-Lys-NH2 (DVYK; HELM PEPTIDE1{[CCCCCCCCCCCCCCCC(=O)[*:2]].D.V.Y.K.[am]}$$$$V2.0; SMILES CCCCCCCCCCCCCCCC(=O)N[C@@H](CC(=O)O)C(=O)N[C@H](C(=O)N[C@@H](Cc1ccc(O)cc1)C(=O)N[C@@H](CCCCN)C(N)=O)C(C)C) [PEP3] | 127.7 | 
24 | Palm-Glu-Val-Tyr-Lys-NH2 (EVYK; HELM PEPTIDE1{[CCCCCCCCCCCCCCCC(=O)[*:2]].E.V.Y.K.[am]}$$$$V2.0; SMILES CCCCCCCCCCCCCCCC(=O)N[C@@H](CCC(=O)O)C(=O)N[C@H](C(=O)N[C@@H](Cc1ccc(O)cc1)C(=O)N[C@@H](CCCCN)C(N)=O)C(C)C) [PEP13] | 147.2 | 
